{"source": "patent US5770573A", "about": "“CS-1 peptidomimetics, compositions and methods of using the same” (Cytel Corporation, priority 1995, dated 1998)", "key": {"EAE in SJL/J mice": {"system": "EAE in SJL/J mice", "assay": "Experimental autoimmune encephalomyelitis in mice", "format": "in vivo", "settings": "1 mg/mouse i.p. at days 8 and 9; versus scrambled control compound", "experimental": "EAE was induced in female SJL/J mice (8 to 14 weeks old) by immunization on day zero with 50 μg of a compound corresponding to positions 139-151 of PLP emulsified in a 1:1 mixture of PBS and complete Freund's adjuvant (CFA). Each mouse was injected with 0.2 ml of the adjuvant emulsion subcutaneously (s.c.) at two sites in the hind flank. All mice received 10^7 killed Bordetella pertussis units in 100 μl were injected intravenously 24 to 72 hours later.\nMice were observed daily, beginning at day 8 for clinical signs of EAE, and disease was scored on a scale of 0-5 as: 0=no disease; 1=floppy tail; 2=moderate hind limb weakness; 3=paraparesis; 4 =paraplegis with moderate forelimb weakness; 5 =qualdriplegis or premoribund state.\nThe inhibitor compound, Compound ID No. 896.52, N-phenylacetyl-Leu-Asp-Phe-D-Pro-NH2 was administered intraperitoneally at 1 mg/mouse in 0.2 ml of incomplete Freund's adjuvant at days 8 and 9. A compound having a scrambled sequence [N-phenylacetyl-Asp-Leu-Phe-D-Pro-NH2 ] was similarly administered to serve as a control.\nSummed or averaged scores for clinical signs were plotted vs. time. The area under the resulting curves was calculated between day 8 and day 35 to calculate percentage inhibition of EAE by an inhibitor compound. The percent inhibition was calculated as follows:\n%Inhibition=100-(Area of inhibitor compound+control area)×100"}, "[1]": {"system": "delayed-type hypersensitivity murine model", "assay": "Adoptive transfer delayed type hypersensitivity in mice (oxazolone)", "format": "in vivo, mouse", "settings": "for Percent Inhibition of post-challenge swelling: expanded study, versus vehicle alone, 6 mg/kg/day s.c. pump, 24 hours", "experimental": "An adoptive transfer delayed-type hypersensitivity murine model has been developed using splenic T cells primed to oxazolone. This model is described in Elices et al., Clin. Exp. Rheum., 11 (Suppl. 8):577-580 (1993), whose procedures were followed here.\nThus, BALB/c mice were shaved on the belly and painted (50 μl on the belly and 5 μl on each paw) with three percent oxazolone in acetone/olive oil (4:1) at days zero and 1. At day 5, the mice were sacrificed, their spleens removed, and splenic T cells were obtained via nylon wool columns.\nNormal saline or saline containing 25×10^6 /animal of the oxazolone-immune T cells were separately injected into naive mice. The mice were then challenged by painting 10 μl of 2 percent oxazolone onto one ear each. All procedures were carried out under sterile conditions and in endotoxin-free buffers.\nPrior to challenge or saline injection, the mice were implanted with pumps that subcutaneously administered normal saline, normal saline containing the compound, Compound ID No. 896.52, N-phenylacetyl-Leu-Asp-Phe-D-Pro-NH2, or normal saline containing a compound with a scrambled sequence continually at 6 mg/kg/day for a 24-hour time period. The swelling diameter at the site of challenge or saline injection was measured with a microcaliper 24 hours thereafter.\nAn expanded study was carried out as described above except that a scrambled compound control was not used as a control for further inhibitor compounds of Table 1 with larger groups of mice. Statistical analyses were carried out versus injection of vehicle alone."}, "asthmatic sheep": {"system": "asthmatic sheep", "assay": "Treatment of asthmatic sheep (Ascaris suum antigen)", "format": "in vivo", "experimental": "Six asthmatic sheep were treated in a double blind cross-over study. […] This study was carried out generally as described in Abraham et al., J. Clin. Invest., 93:776-787 (1994).\nThe inhibitor compound used here was Compound ID No. 896.52, N-phenylacetyl-Leu-Asp-Phe-D-Pro-NH2, with a control compound that comprised the previously described compound having the same residues in a scrambled sequence. The vehicle for the nebulized compounds was phosphate-buffered saline. The compounds were administered at a dose of 1 mg/kg each, twice a day for three days prior to challenge, as well as 0.5 hours prior to and four hours post challenge on day 4. Because this was a crossover study, each animal received one or the other treatment, followed by a rest and then the other treatment. Each animal therefore served as its own control.\nPost challenge airway responsiveness was also assayed. Here, specific lung resistance, SRL, returned to baseline values 24 hours after challenge, however, the sheep were hyperresponsive to inhaled carbachol at that time."}, "asthmatic rabbits": {"system": "asthmatic rabbits", "assay": "Treatment of asthmatic rabbits (house dust mite antigen challenge)", "format": "in vivo, rabbit", "experimental": "Six New Zealand white rabbits were immunized with house dust mite antigen from birth through four months of age. Upon immunization, three rabbits received a single nebulizer administration of the inhibitor compound, Compound ID No. 1051.01, N-phenylacetyl-Leu-Asp-Phe-morpholinamide in aqueous 50 percent ethanol as diluent in an amount of 100 mg/kg, and the other three received diluent alone. All of the rabbits were challenged with house dust mite antigen about 15-30 minutes after administration of the compound, with those animals not receiving compound serving as controls.\nOnce immunized and challenged, the inflammatory state subsides to a basal level within about three weeks. The three animals used as controls were thereafter used as subjects for receipt of an inhibitor compound, and the three rabbits that initially received the compound can serve as controls.\nSuch a crossover study was done here. Thus, the three initial control rabbits were treated with the above inhibitor compound in the above diluent at a time more than three weeks after the above study, and the three previous recipients of the compound were administered the diluent alone. All six were than challenged again.\nInitial pulmonary function, measured by dynamic compliance (Cdyn) and lung resistance (RL) , and bronchoalveolar lavage (BAL) to obtain an effector cell count, here eosinophils, were conducted prior to administration of the compound or diluent for both portions of this crossover study. Similar assays were then taken one-half hourly after challenge for six hours (early phase allergic reaction) and at 24 hours after challenge (late stage allergic reaction) for both portions of this study.\nThese studies were conducted as described by W. J. Metzger in CRC Handbook of Late Phase Reactions, W. Dorsch, ed., Chapter 35, CRC Press, Boca Raton, Fla. (1990) pages 347-362.\nThe results of this study for the pulmonary function parameters are shown in FIG. 4A and FIG. 4B, in which data for the challenged, inhibitor compound-treated animals are shown as open circles and data for the challenged, untreated, control animals are shown in blackened circles."}, "VLA-4 [2]": {"molecular_target": "T1, VLA-4 (Homo sapiens, UniProt P05556+P13612)", "T1 sequence (P13612 34-1032)": "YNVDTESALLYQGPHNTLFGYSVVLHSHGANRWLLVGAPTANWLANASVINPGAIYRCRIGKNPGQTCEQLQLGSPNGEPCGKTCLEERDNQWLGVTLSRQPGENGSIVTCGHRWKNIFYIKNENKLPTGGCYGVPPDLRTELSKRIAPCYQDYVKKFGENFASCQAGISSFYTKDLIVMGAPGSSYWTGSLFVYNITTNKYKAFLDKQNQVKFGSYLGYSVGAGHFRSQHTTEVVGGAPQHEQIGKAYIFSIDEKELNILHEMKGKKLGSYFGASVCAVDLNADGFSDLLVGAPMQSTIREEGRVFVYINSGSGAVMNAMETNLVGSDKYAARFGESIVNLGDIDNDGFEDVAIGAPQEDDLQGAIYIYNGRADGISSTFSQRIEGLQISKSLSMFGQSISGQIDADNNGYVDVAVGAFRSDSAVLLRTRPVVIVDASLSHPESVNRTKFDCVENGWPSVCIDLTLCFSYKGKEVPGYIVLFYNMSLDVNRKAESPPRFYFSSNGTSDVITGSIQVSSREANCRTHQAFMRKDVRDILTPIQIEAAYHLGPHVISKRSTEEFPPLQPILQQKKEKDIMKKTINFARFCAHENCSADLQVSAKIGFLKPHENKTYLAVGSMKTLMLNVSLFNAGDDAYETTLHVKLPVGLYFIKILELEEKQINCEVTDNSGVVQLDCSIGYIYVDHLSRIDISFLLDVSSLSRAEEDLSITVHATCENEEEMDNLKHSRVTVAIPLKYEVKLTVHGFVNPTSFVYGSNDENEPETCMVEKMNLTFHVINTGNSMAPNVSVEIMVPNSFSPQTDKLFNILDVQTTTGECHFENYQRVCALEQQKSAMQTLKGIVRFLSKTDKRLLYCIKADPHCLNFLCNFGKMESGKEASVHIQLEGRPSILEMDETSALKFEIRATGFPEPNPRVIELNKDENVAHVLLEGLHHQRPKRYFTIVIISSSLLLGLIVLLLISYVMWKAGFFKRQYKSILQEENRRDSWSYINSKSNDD", "T1 sequence (P05556 21-798)": "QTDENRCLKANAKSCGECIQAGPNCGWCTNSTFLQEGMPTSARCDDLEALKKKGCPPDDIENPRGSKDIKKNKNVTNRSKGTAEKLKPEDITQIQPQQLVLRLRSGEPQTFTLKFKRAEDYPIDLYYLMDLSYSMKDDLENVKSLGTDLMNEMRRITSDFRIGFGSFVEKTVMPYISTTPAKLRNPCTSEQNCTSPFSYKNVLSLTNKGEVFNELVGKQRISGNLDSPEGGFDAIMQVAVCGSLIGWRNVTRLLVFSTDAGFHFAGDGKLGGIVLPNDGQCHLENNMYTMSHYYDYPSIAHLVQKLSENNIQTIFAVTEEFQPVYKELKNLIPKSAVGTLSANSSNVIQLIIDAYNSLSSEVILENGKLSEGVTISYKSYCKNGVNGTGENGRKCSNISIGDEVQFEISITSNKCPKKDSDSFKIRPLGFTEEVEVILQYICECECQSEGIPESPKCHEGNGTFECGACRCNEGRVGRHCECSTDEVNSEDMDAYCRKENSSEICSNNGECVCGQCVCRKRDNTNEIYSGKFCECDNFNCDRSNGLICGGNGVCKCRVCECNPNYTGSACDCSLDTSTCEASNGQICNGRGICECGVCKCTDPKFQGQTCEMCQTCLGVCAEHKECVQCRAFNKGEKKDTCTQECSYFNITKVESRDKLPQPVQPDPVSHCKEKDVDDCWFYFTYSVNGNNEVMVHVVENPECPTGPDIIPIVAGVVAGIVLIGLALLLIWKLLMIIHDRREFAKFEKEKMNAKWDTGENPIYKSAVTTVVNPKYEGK", "assay": "In vitro binding inhibition of 51Cr-labeled Jurkat cells to solid phase-bound CS-1 compound (SEQ ID NO:1)", "format": "cell-based", "design": "inflammatory cells that contain the VLA-4 receptor [Jurkat cells; host or cells: Jurkat (human T lymphoblastic line)", "summary_of_the_method": "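51Cr-labeled human Jurkat cells were preincubated with compound 30 min at about 22° C, then allowed to bind to wells coated with CS-1 peptide or CS-1-OVA for 30 min at 37° C. After washing, bound cells were lysed with SDS and counted. IC50 is the concentration halving binding, normalized to SEQ ID NO: 3.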"}, "Jurkat cells": {"system": "Jurkat cells", "assay": "Binding of Jurkat cells to frozen human RA synovial sections", "format": "cell-based", "settings": "500 μg/ml", "experimental": "Binding studies were carried out using the Jurkat T cell line and frozen RA synovial sections. […] Stimulated MOLT-4 cells behaved similarly.\nThe absolute value of that IC50 value is about 0.5 μmolar."}, "immune T cells": {"system": "immune T cells", "settings": "about 50 μg/ml admixed with immune T cells; cited from earlier work"}, "VLA-4 [3]": {"molecular_target": "T1, VLA-4", "settings": "cited from earlier work"}, "[4]": {"settings": "100 mg/kg nebulizer, late (24 hours)"}, "[5]": {"settings": "binding inhibition potency relative to standard compound of SEQ ID NO:3 = 1 (normalized IC50), about one-tenth or less assigned zero"}}, "note": "Like-named read-outs stand apart in the source and are kept apart here. Square brackets hold non-standard residues; d marks the D form. Peptide text beside a SMILES is read from it. * marks the point of attachment. Morpholide = C1CN(*)CCO1; PhAc = O=C(Cc1ccccc1)*"}
{"molecule": "CC(C)C[C@H](NC(=O)Cc1ccccc1)C(=O)N[C@@H](CC(=O)O)C(=O)N[C@@H](Cc1ccccc1)C(=O)N1CCC[C@@H]1C(N)=O", "note": "[896.52] (PhAc-LDF[dP]-NH2)", "values": [{"measurement": "clinical signs of EAE (FIG. 6)", "setting": "EAE in SJL/J mice", "value": "marked improvement in clinical signs"}, {"measurement": "swelling at challenge site (initial study, FIG. 5)", "setting": "[1]; 6 mg/kg/day s.c. by implanted pump for 24 hours, versus saline", "value": "reduced this type of CS-1/VLA-4-mediated immunoinflammation"}, {"measurement": "Percent Inhibition of post-challenge swelling", "setting": "[1]", "value": 36, "unit": "%"}, {"measurement": "PC400, carbachol dosage to increase SRL 4-fold", "setting": "asthmatic sheep; 24 hours after challenge, pre-challenge about 20-23 BU", "value": "about 27 BU"}, {"measurement": "specific lung resistance SRL after challenge (FIG. 7)", "setting": "asthmatic sheep; nebulized 1 mg/kg twice a day, versus control compound", "value": "less of a change from baseline specific lung resistance (SRL)"}]}
{"molecule": "CC(C)C[C@H](NC(=O)Cc1ccccc1)C(=O)N[C@@H](CC(=O)O)C(=O)N[C@@H](Cc1ccccc1)C(=O)N1CCOCC1", "note": "[1051.01] (PhAc-Leu-Asp-Phe-Morpholide)", "values": [{"measurement": "% Reduction, RL, Early phase", "setting": "asthmatic rabbits; 100 mg/kg nebulizer, early (2-4 hours)", "value": 80.1, "unit": "%"}, {"measurement": "% Reduction, Cdyn, Early phase", "setting": "asthmatic rabbits; 100 mg/kg nebulizer, early (2-4 hours), versus challenged controls", "value": 94.4, "unit": "%"}, {"measurement": "% Reduction, Cdyn, Late phase", "setting": "asthmatic rabbits; [4]", "value": 86.6, "unit": "%"}, {"measurement": "% Reduction, RL, Late phase", "setting": "asthmatic rabbits; [4]", "value": 82.6, "unit": "%"}, {"measurement": "reduction in eosinophils (BAL count)", "setting": "asthmatic rabbits; after 24 hours, versus untreated, challenged animals", "value": 88.1, "unit": "%"}, {"measurement": "dynamic compliance Cdyn over six hours (FIG. 4A)", "setting": "asthmatic rabbits; six hours after challenge", "value": "stayed at about the initial value"}, {"measurement": "lung resistance RL over six hours (FIG. 4B)", "setting": "asthmatic rabbits; six hours after challenge", "value": "remained between the initial value and about 200% of that value"}, {"measurement": "Relative Potency", "setting": "VLA-4 [2]; [5]", "value": 709}]}
{"molecule": "CC(C)C[C@H](NC(=O)Cc1ccccc1)C(=O)N[C@@H](CC(=O)O)C(=O)N[C@@H](Cc1ccccc1)C(=O)N1CCC(O)CC1", "note": "[1070.02]", "values": [{"measurement": "Relative Potency", "setting": "VLA-4 [2]; [5]", "value": 604}, {"measurement": "Percent Inhibition of post-challenge swelling", "setting": "[1]", "value": 29, "unit": "%"}]}
{"molecule": "CC[C@H](C)[C@H](NC(=O)[C@H](CCC(=O)O)NC(=O)[C@@H]1CCCN1C(=O)CN)C(=O)N[C@@H](CC(C)C)C(=O)N[C@@H](CC(=O)O)C(=O)N[C@H](C(=O)N1CCC[C@H]1C(=O)N[C@@H](CO)C(=O)N[C@H](C(=O)O)[C@@H](C)O)C(C)C", "note": "[Compound ID No. 872.01, GPEILDVPST] (H-GPEILDVPST-OH)", "values": [{"measurement": "inhibition of Jurkat cell adhesion to RA synovial sections", "setting": "Jurkat cells", "value": "could be inhibited"}, {"measurement": "abrogation of transferred immune response", "setting": "immune T cells", "value": "could abrogate a transferred immune response"}]}
{"molecule": "CC(C)C[C@H](NC(=O)Cc1ccccc1)C(=O)N[C@@H](CC(=O)O)C(=O)N[C@@H](Cc1ccccc1)C(=O)N1CCN(CC(=O)O)CC1", "note": "[1111.06]", "values": [{"measurement": "Relative Potency", "setting": "VLA-4 [2]; [5]", "value": 2600}, {"measurement": "Percent Inhibition of post-challenge swelling", "setting": "[1]", "value": 30, "unit": "%"}]}
{"molecule": "Leu-Asp-Val [LDV]", "values": [{"measurement": "affinity of VLA-4 binding relative to native CS-1 25-mer", "setting": "VLA-4 [3]", "value": "at least two orders of magnitude lower affinity"}]}
{"molecule": "CC(C)C[C@H](NC(=O)Cc1ccccc1)C(=O)N[C@@H](CS)C(=O)N[C@@H](Cc1ccccc1)C(=O)N1CCC[C@@H]1C(N)=O", "note": "[896.59] (PhAc-LCF[dP]-NH2)", "values": [{"measurement": "Relative Potency", "setting": "VLA-4 [2]; [5]", "value": 0}]}
{"molecule": "CC(=O)[C@H]1C[C@@H](CC(=O)N[C@@H](CC(=O)O)C(=O)N[C@@H](Cc2ccccc2)C(=O)N2CCC[C@@H]2C(N)=O)C1(C)C", "note": "[1056.03]", "values": [{"measurement": "Relative Potency", "setting": "VLA-4 [2]", "value": 0}]}
